# Assay results from patent publication US10828317B2, “Method of treating bacterial infections” (priority 2016, dated 2020).
# Values joined by “and” are separate entries in the source; they are usually repeats but may differ in a detail not shown here. Equal entries are not always repeated. Where two headings read alike, the source gives them in different places.
# Experiments:
# [1] = test system: E. coli EN0138; assay: MIC, ESBL (CTX-M-9); format: cell-based; conditions: Escherichia coli, EN0138, combination AZT+trimethoprim+uridine, Table 17B; read-out: MIC
# [2] = test system: K. pneumoniae EN0142; assay: MIC, OXA-48, CTX-M-15; format: cell-based; conditions: Klebsiella pneumoniae, EN0142, combination didanosine+trimethoprim+uridine, Table 20
# [3] = test system: K. pneumoniae EN0437; assay: MIC, colistinR; format: cell-based; conditions: Klebsiella pneumoniae, read-out: MIC
# [4] = test system: K. pneumoniae EN0233; assay: MIC; format: cell-based; conditions: Klebsiella pneumoniae, read-out: MIC
# [5] = test system: Helicobacter pylori APV00918; assay: MIC; format: cell-based; conditions: Helicobacter pylori, APV00918, combination FdUrd+trimethoprim+uridine, Table 22A
# Source text: (§1) Inhibition of Heliobacter is important in view of increasing resistance and its association to gastric cancer.
# [6] = test system: K. oxytoca EN0392; assay: MIC; format: cell-based; conditions: Klebsiella oxytoca
# [7] = test system: E. coli EN0136; assay: MIC, ESBL (CTX-M-2); format: cell-based; conditions: Escherichia coli, read-out: MIC
# [8] = test system: K. pneumoniae EN010; assay: MIC, WT; format: cell-based, Klebsiella pneumoniae; conditions: Klebsiella pneumoniae, read-out: MIC
# [9] = test system: K. pneumoniae EN0143; assay: MIC, ESBL (SHV-12); format: cell-based; conditions: Klebsiella pneumoniae, read-out: MIC
# [10] = test system: K. pneumoniae EN0436; assay: MIC, colistinR; format: cell-based; conditions: Klebsiella pneumoniae, read-out: MIC
# [11] = test system: K. pneumoniae EN0262; assay: MIC, ESBL (+), KPC+; format: cell-based
# [12] = test system: K. pneumoniae EN0140; assay: MIC, AmpC (DHA-1); format: cell-based; conditions: Klebsiella pneumoniae, read-out: MIC
# [13] = test system: P. aeruginosa EN014; assay: MIC, WT; format: cell-based, Pseudomonas aeruginosa; conditions: Pseudomonas aeruginosa, read-out: MIC
# [14] = test system: S. typhimurium EN0466; assay: MIC; format: cell-based; conditions: Salmonella enterica
# [15] = test system: E. coli; assay: Murine peritonitis model; format: in vivo, mice; parameters: score at sampling: scale not given here
# [16] = test system: E. coli strain no 2; assay: MIC vs E. coli LMG 15862, penicillin resistant; conditions: Escherichia coli
# [17] = test system: Helicobacter pylori ATTC43504; assay: MIC; format: cell-based; conditions: Helicobacter pylori, Table 22A, read-out: MIC
# Source text: as §1
# [18] = test system: S. flexneri APV00906; assay: microbe, parasite or virus in culture; format: cell-based; conditions: Shigella flexneri, APV00906
# Source text: as §1
# [19] = Infusion of 1-12 g/sq. m., Leyva et al, 1984; cited from earlier work
# [20] = EN0392, Combination 1 AZT+trimethoprim+uridine, Table 16
# [21] = EN0392, combination AZT+trimethoprim+uridine, Table 6
# [22] = EN0392, combination FdUrd+trimethoprim+uridine, Table 8
# [23] = EN0136, combination didanosine+trimethoprim+uridine, Table 20
# [24] = EN0140, combination didanosine+trimethoprim+uridine, Table 20
# [25] = EN014, Combination 1 AZT+trimethoprim+uridine, Table 16
# [26] = EN014, Combination 2 AZT+trimethoprim+uridine+thymidine, Table 16
# [27] = EN014, combination AZT+trimethoprim+uridine, Table 6
# [28] = EN014, combination FdUrd+trimethoprim+uridine, Table 8
# [29] = EN014, combination didanosine+trimethoprim+uridine, Table 10
# [30] = Combination 1 AZT+trimethoprim+uridine, Table 16
# [31] = combination AZT+trimethoprim+uridine, Table 6
# [32] = combination FdUrd+trimethoprim+uridine, Table 8
# [33] = Trimethoprim 30 mg/kg, per mouse
smiles,measurement,setting,value
"COc1cc(Cc2cnc(N)nc2N)cc(OC)c1OC [Trimethoprim, trimethoprim]",MIC,[1],0.016 µg/mL
same,MIC,[2],> 8 µg/mL
same,MIC,"[3]; EN0437, combination AZT+trimethoprim+uridine, Table 17B",> 4 µg/mL
same,MIC,"[3]; EN0437, combination FdUrd+trimethoprim+uridine, Table 19",> 8 µg/mL
same,MIC,"[3]; EN0437, combination didanosine+trimethoprim+uridine, Table 20",> 8 µg/mL
same,MIC,"[4]; EN0233, combination FdUrd+trimethoprim+uridine, Table 19",1 µg/mL
same,MIC,"[4]; EN0233, combination didanosine+trimethoprim+uridine, Table 20",2 µg/mL
same,MIC,[5],0.125 µg/mL
same,MIC,[6]; [20],0.064 µg/mL
same,MIC,"[6]; EN0392, Combination 2 AZT+trimethoprim+uridine+thymidine, Table 16",0.5 µg/mL
same,MIC,[6]; [21],0.06 µg/mL
same,MIC,[6]; [22],0.25 µg/mL
same,MIC,"[6]; EN0392, combination didanosine+trimethoprim+uridine, Table 10",0.5 µg/mL
same,MIC,"[7]; EN0136, combination FdUrd+trimethoprim+uridine, Table 19",2 µg/mL
same,MIC,[7]; [23],> 8 µg/mL
same,MIC,"[8]; EN010, Combination 2 AZT+trimethoprim+uridine+thymidine, Table 16",1 µg/mL
same,MIC,"[8]; EN010, combination AZT+trimethoprim+uridine, Table 6",0.5 µg/mL
same,MIC,"[8]; EN010, combination FdUrd+trimethoprim+uridine, Table 8",1 µg/mL
same,MIC,"[8]; EN010, combination didanosine+trimethoprim+uridine, Table 10",1 µg/mL
same,MIC,"[9]; EN0143, combination AZT+trimethoprim+uridine, Table 17B",> 4 µg/mL
same,MIC,"[9]; EN0143, combination FdUrd+trimethoprim+uridine, Table 19",> 8 µg/mL
same,MIC,"[9]; EN0143, combination didanosine+trimethoprim+uridine, Table 20",> 8 µg/mL
same,MIC,"[10]; EN0436, combination FdUrd+trimethoprim+uridine, Table 19",0.5 µg/mL
same,MIC,"[10]; EN0436, combination didanosine+trimethoprim+uridine, Table 20",0.5 µg/mL
same,MIC,"[11]; Klebsiella pneumoniae, EN0262, combination AZT+trimethoprim+uridine, Table 17B and 18, read-out: MIC",0.5 µg/mL
same,MIC,"[11]; Klebsiella pneumoniae, EN0262, combination FdUrd+trimethoprim+uridine, Table 19 and 21, read-out: MIC",4 µg/mL
same,MIC,"[11]; Klebsiella pneumoniae, EN0262, combination didanosine+trimethoprim+uridine, Table 20 and 21, read-out: MIC",4 µg/mL
same,MIC,"[11]; combination AZT+trimethoprim+uridine, Table 17B and 18",0.5 µg/mL
same,MIC,"[11]; combination FdUrd+trimethoprim+uridine, Table 19 and 21",4 µg/mL
same,MIC,"[11]; combination didanosine+trimethoprim+uridine, Table 20 and 21",4 µg/mL
same,MIC,"[12]; EN0140, combination AZT+trimethoprim+uridine, Table 17B",1 µg/mL
same,MIC,"[12]; EN0140, combination FdUrd+trimethoprim+uridine, Table 19",> 8 µg/mL
same,MIC,[12]; [24],> 8 µg/mL
same,MIC,[13]; [25],> 4 µg/mL
same,MIC,[13]; [26],> 4 µg/mL
same,MIC,[13]; [27],> 4 µg/mL
same,MIC,[13]; [28],> 8 µg/mL
same,MIC,[13]; [29],> 8 µg/mL
same,MIC,[14]; [30],0.064 µg/mL
same,MIC,"[14]; Combination 2 AZT+trimethoprim+uridine+thymidine, Table 16",0.5 µg/mL
same,MIC,[14]; [31],0.06 µg/mL
same,MIC,[14]; [32],0.25 µg/mL
same,MIC,"[14]; combination didanosine+trimethoprim+uridine, Table 10",0.5 µg/mL
same,CFU/ml PF,[15]; [33],9.50E+03 CFU/ml and 1.60E+06 CFU/ml and 3.25E+05 CFU/ml and 4.75E+05 CFU/ml
same,log CFU/ml PF,[15]; [33],3.98 log CFU/ml and 6.20 log CFU/ml and 5.51 log CFU/ml and 5.68 log CFU/ml
same,score at sampling,[15]; [33],1
same,inhibition in mice infected with E. coli (in words),[15]; murine peritonitis model,slight inhibition
same,MIC,"[16]; NO2, read-out: MIC FdUrd/Trimethoprim (1:2), uridine 10 μg/ml, thymidine 10 μM",> 40 µg/mL
same,MIC,"[16]; NO2, read-out: MIC FdUrd/Trimethoprim (1:2), uridine 100 μg/ml, thymidine 10 μM",> 40 µg/mL
"O=c1ccn([C@@H]2O[C@H](CO)[C@@H](O)[C@H]2O)c(=O)[nH]1 [Uridine, uridine]",MIC,[2],> 400 µg/mL
same,MIC,"[17]; ATTC43504, combination AZT+trimethoprim+uridine",13 µg/mL
same,MIC,"[17]; ATTC43504, combination FdUrd+trimethoprim+uridine",6 µg/mL
same,MIC,[18],> 400 µg/mL
same,MIC,[6]; [20],6.4 µg/mL
same,MIC,[6]; [21],16 µg/mL
same,MIC,[6]; [22],13 µg/mL
same,MIC,"[7]; EN0136, combination AZT+trimethoprim+uridine, Table 17B",13 µg/mL
same,MIC,[7]; [23],> 400 µg/mL
same,plasma levels,[19],up to 500 μg/ml
same,MIC,[12]; [24],> 400 µg/mL
same,MIC,[13]; [25],> 400 µg/mL
same,MIC,[13]; [26],> 400 µg/mL
same,MIC,[13]; [27],> 1000 µg/mL
same,MIC,[13]; [28],> 400 µg/mL
same,MIC,[13]; [29],> 400 µg/mL
same,MIC,[14]; [30],6.4 µg/mL
same,MIC,[14]; [31],16 µg/mL
same,MIC,[14]; [32],13 µg/mL
